Experimental data from patent US7772183B2 (Bristol-Myers Squibb Company, priority 2005, dated 2010).
Where two headings read alike, the source gives them in different places.

Key:
[1] = system: human pancreatic chymotrypsin; experiment: Specificity assay, chymotrypsin; assay type: biochemical; conditions: read-out: Chymotrypsin activity in the specificity assays
Procedure: (§1) The specificities of compounds of the present disclosure were determined against a variety of serine proteases: human neutrophil elastase (HNE), porcine pancreatic elastase (PPE) and human pancreatic chymotrypsin and one cysteine protease: human liver cathepsin B. In all cases, a 96-well plate format protocol using colorimetric p-nitroaniline (pNA) substrate or fluorometric Amino-Methyl-Coumarin (AMC) substrate, specific for each enzyme was used as described previously (PCT Patent Application No. WO 00/09543) with some modifications. All enzymes were purchased from Sigma or EMDbiosciences while the substrates were from Bachem.
(§2) Each pNA assay included a 2 h enzyme-inhibitor pre-incubation at room temperature followed by addition of substrate and hydrolysis to ˜15% conversion as measured on a Spectramax Pro microplate reader. The cathepsin B assay was initiated by adding substrate to a 10 min enzyme-inhibitor pre-incubation at room temperature, and the assay plate measured immediately using the Cytofluor Series 4000. Compound concentrations varied from 100 to 0.4 μM depending on their potency.
(§3) The final conditions for each assay were as follows: […]
(§4) The percentage of inhibition was calculated using the formula: [1−((UVinh−UVblank)/(UVctl−UVblank))]×100 […]

[2] = system: HCV replicon (Renilla luciferase reporter) in HUH-7 cells; experiment: HCV replicon luciferase reporter assay; assay type: cell-based, Hepatitis C virus (strain 1b); conditions: Huh-7, 96 h, 4 days
Text: An HCV replicon whole cell system was established as described by Lohmann V, Komer F, Koch J, Herian U, Theilmann L, Bartenschlager R., Science 285(5424):110-3 (1999). This system enabled us to evaluate the effects of our HCV Protease compounds on HCV RNA replication. Briefly, using the HCV strain 1b sequence described in the Lohmann paper (Assession number: AJ238799), an HCV cDNA was synthesized by Operon Technologies, Inc. (Alameda, Calif.), and the full-length replicon was then assembled in plasmid pGem9zf(+) (Promega, Madison, Wis.) using standard molecular biology techniques. The replicon consists of (i) the HCV 5′ UTR fused to the first 12 amino acids of the capsid protein, (ii) the neomycin phosphotransferase gene (neo), (iii) the IRES from encephalomyocarditis virus (EMCV), and (iv) HCV NS3 to NS5B genes and the HCV 3′ UTR. […]
As a secondary assay, EC50 determinations from the replicon FRET assay were confirmed in a replicon luciferase reporter assay. […] Following 4 days in a 37° C./5% CO2 incubator, cells were analyzed for Renilla Luciferase activity using the Promega Dual-Glo Luciferase Assay System. […] Plates were read on a Packard TopCount NXT using a luminescence program.
The percentage inhibition was calculated using the formula below: […]
The values were graphed and analyzed using XLfit to obtain the EC50 value.

[3] = system: HCV replicon in HUH-7 cells; experiment: HCV replicon FRET assay; assay type: cell-based, Hepatitis C virus (strain 1b); conditions: Hepatitis C virus
How it was run: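 HUH-7 cells stably carrying a genotype 1b subgenomic HCV replicon (NS3–NS5B) treated with compound for 4 days at 37° C, 0.5% DMSO final. Cytotoxicity (CC50) read by alamar Blue; cells then lysed with 10 μM FRET HCV protease peptide substrate and kinetically read (340/490 nm) for EC50.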

[4] = molecular target: T1, porcine pancreatic elastase (PPE) (Sus scrofa, UniProt P00772); experiment: Specificity assay, pancreatic elastase; assay type: biochemical; conditions: read-out: PPE activity in the specificity assays
T1 construct: purchased Sigma or EMDbiosciences
Procedure: as §1, §2, §3, §4

T1 sequence (P00772 27-266): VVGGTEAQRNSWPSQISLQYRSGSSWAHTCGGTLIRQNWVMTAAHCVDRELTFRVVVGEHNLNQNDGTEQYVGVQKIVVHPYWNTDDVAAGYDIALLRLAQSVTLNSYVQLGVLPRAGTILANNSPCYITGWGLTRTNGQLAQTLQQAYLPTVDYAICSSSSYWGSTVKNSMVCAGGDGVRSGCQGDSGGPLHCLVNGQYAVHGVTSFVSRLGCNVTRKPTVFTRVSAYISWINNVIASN

How did the IC50 [1] turn out when `CC(C)(C)OC(=O)N[C@H]1CCCCC/C=C\[C@@H]2C[C@@]2(C(=O)NS(=O)(=O)C2CC2)NC(=O)[C@@H]2C[C@@H](OC(=O)c3ccc(C#N)cc3)CN2C1=O` [Compound 26, 18-(4-cyanobenzoyloxy)-14-tert-butoxycarbonylamino-4-cyclopropylsulfonylaminocarbonyl-2,15-dioxo-3,16-diazatricyclo-[14.3.0.0^4,6]-nonadec-7-ene] was run?
Its IC50 is > 100000 nM.

And the EC50 [2]?
The EC50 was 4.3 nM.

What about the EC50 ([3]; 96 h, HUH-7 replicon cells, 4 days, read-out: EC50 in the replicon FRET assay) of the same molecule?
Its EC50 is 7.3 nM.

And the EC50 ([3]; Huh-7, HCV replicon, for compounds tested, read-out: EC50 Range)?
The EC50 was < 100 nM.

What about the IC50 [4] of the same molecule?
The IC50 was > 100000 nM.
